Reference: the NIST ThermoML archive (doi:10.1016/j.jct.2007.07.005)

Assay: xn = mol fraction of the nth substance listed
Details: Fluid (supercritical or subcritical phases), vibrating tube

CCCCCO [pentan-1-ol] + O=C=O
Details | mass density [kg/m3]
323.05 K, 13025 kPa, x2 = 0.0816 | 806.04
323.05 K, 13028 kPa, x2 = 0.8067 | 814.77
323.05 K, 14019 kPa, x2 = 0.3624 | 822.92
323.05 K, 14021 kPa, x2 = 0.0816 | 806.82
323.05 K, 14024 kPa, x2 = 0.8067 | 820.63
323.05 K, 14024 kPa, x2 = 0.9757 | 722.69
323.05 K, 14031 kPa, x2 = 0.4651 | 829.31
323.05 K, 14965 kPa, x2 = 0.9757 | 740.5
323.05 K, 14990 kPa, x2 = 0.4651 | 830.68
323.05 K, 15001 kPa, x2 = 0.8067 | 825.93
323.05 K, 15006 kPa, x2 = 0.3624 | 823.89
323.05 K, 15017 kPa, x2 = 0.0816 | 807.57
323.05 K, 16002 kPa, x2 = 0.3624 | 824.89
323.05 K, 16018 kPa, x2 = 0.9757 | 757.4
323.05 K, 16021 kPa, x2 = 0.0816 | 808.32
323.05 K, 16027 kPa, x2 = 0.4651 | 832.14
323.05 K, 16066 kPa, x2 = 0.8067 | 831.24
323.05 K, 17005 kPa, x2 = 0.0816 | 809.07
323.05 K, 17018 kPa, x2 = 0.4651 | 833.51
323.05 K, 17021 kPa, x2 = 0.3624 | 825.87
323.05 K, 17021 kPa, x2 = 0.8067 | 835.7
323.05 K, 17052 kPa, x2 = 0.9757 | 771.8
323.05 K, 17994 kPa, x2 = 0.4651 | 834.85
323.05 K, 18001 kPa, x2 = 0.3624 | 826.81
323.05 K, 18002 kPa, x2 = 0.8067 | 840
323.05 K, 18028 kPa, x2 = 0.9757 | 783.78
323.05 K, 18049 kPa, x2 = 0.0816 | 809.83
323.05 K, 18975 kPa, x2 = 0.0816 | 810.52
323.05 K, 19012 kPa, x2 = 0.8067 | 844.21
323.05 K, 19034 kPa, x2 = 0.3624 | 827.81
323.05 K, 19035 kPa, x2 = 0.9757 | 794.96
323.05 K, 19057 kPa, x2 = 0.4651 | 836.29
323.05 K, 19998 kPa, x2 = 0.3624 | 828.72
323.05 K, 20002 kPa, x2 = 0.9757 | 804.8
323.05 K, 20009 kPa, x2 = 0.4651 | 837.54
323.05 K, 20044 kPa, x2 = 0.8067 | 848.26
323.05 K, 20047 kPa, x2 = 0.0816 | 811.3
323.05 K, 20997 kPa, x2 = 0.0816 | 811.98
323.05 K, 21033 kPa, x2 = 0.3624 | 829.67
323.05 K, 21034 kPa, x2 = 0.4651 | 838.89
323.05 K, 21046 kPa, x2 = 0.8067 | 851.97
323.05 K, 21049 kPa, x2 = 0.9757 | 814.6
323.05 K, 21991 kPa, x2 = 0.0816 | 812.7
323.05 K, 22013 kPa, x2 = 0.3624 | 830.58
323.05 K, 22017 kPa, x2 = 0.4651 | 840.19
323.05 K, 22017 kPa, x2 = 0.8067 | 855.5
323.05 K, 22020 kPa, x2 = 0.9757 | 823
323.05 K, 22767 kPa, x2 = 0.9757 | 829.12
323.05 K, 22970 kPa, x2 = 0.8067 | 858.77
323.05 K, 22997 kPa, x2 = 0.3624 | 831.49
323.05 K, 23022 kPa, x2 = 0.4651 | 841.47
323.05 K, 23054 kPa, x2 = 0.0816 | 813.46
323.05 K, 23901 kPa, x2 = 0.4651 | 842.61
323.05 K, 23987 kPa, x2 = 0.0816 | 814.12
323.05 K, 24062 kPa, x2 = 0.3624 | 832.47
323.05 K, 24707 kPa, x2 = 0.3624 | 833.04
323.05 K, 25014 kPa, x2 = 0.0816 | 814.87
323.06 K, 11010 kPa, x2 = 0.8573 | 775.4
323.06 K, 11028 kPa, x2 = 0.9216 | 732.55
323.06 K, 12011 kPa, x2 = 0.9216 | 751.44
323.06 K, 12019 kPa, x2 = 0.8573 | 787.14
323.06 K, 13011 kPa, x2 = 0.8573 | 796.54
323.06 K, 13032 kPa, x2 = 0.9216 | 766.64
323.06 K, 14000 kPa, x2 = 0.8573 | 804.66
323.06 K, 14011 kPa, x2 = 0.9216 | 778.82
323.06 K, 15019 kPa, x2 = 0.8573 | 812.19
323.06 K, 15028 kPa, x2 = 0.9216 | 789.81
323.06 K, 15995 kPa, x2 = 0.9216 | 799.06
323.06 K, 16044 kPa, x2 = 0.8573 | 819.03
323.06 K, 17005 kPa, x2 = 0.8573 | 824.92
323.06 K, 17047 kPa, x2 = 0.9216 | 808.18
323.06 K, 18002 kPa, x2 = 0.9216 | 815.71
323.06 K, 18049 kPa, x2 = 0.8573 | 830.83
323.06 K, 19010 kPa, x2 = 0.8573 | 835.97
323.06 K, 19033 kPa, x2 = 0.9216 | 823.28
323.06 K, 19996 kPa, x2 = 0.9216 | 829.83
323.06 K, 20006 kPa, x2 = 0.8573 | 840.95
323.06 K, 20987 kPa, x2 = 0.8573 | 845.64
323.06 K, 21053 kPa, x2 = 0.9216 | 836.6
323.06 K, 21758 kPa, x2 = 0.9216 | 840.85
323.06 K, 22019 kPa, x2 = 0.8573 | 850.27
323.06 K, 23021 kPa, x2 = 0.8573 | 854.64
323.06 K, 24075 kPa, x2 = 0.8573 | 858.97
323.08 K, 11058 kPa, x2 = 0.7274 | 819.26
323.08 K, 12031 kPa, x2 = 0.7274 | 823.11
323.08 K, 13034 kPa, x2 = 0.7274 | 826.85
323.08 K, 14040 kPa, x2 = 0.7274 | 830.38
323.08 K, 15010 kPa, x2 = 0.7274 | 833.59
323.08 K, 16026 kPa, x2 = 0.7274 | 836.83
323.08 K, 17015 kPa, x2 = 0.7274 | 839.83
323.08 K, 17987 kPa, x2 = 0.7274 | 842.68
323.08 K, 19054 kPa, x2 = 0.7274 | 845.68
323.08 K, 19981 kPa, x2 = 0.7274 | 848.2
323.08 K, 21008 kPa, x2 = 0.7274 | 850.93
323.08 K, 22014 kPa, x2 = 0.7274 | 853.5
323.08 K, 23019 kPa, x2 = 0.7274 | 855.98
323.08 K, 23836 kPa, x2 = 0.7274 | 857.96
323.11 K, 6015 kPa, x2 = 0.1347 | 801.54
323.11 K, 7002 kPa, x2 = 0.1347 | 802.41
323.11 K, 8020 kPa, x2 = 0.1347 | 803.27
323.11 K, 9002 kPa, x2 = 0.1347 | 804.12
323.11 K, 9115 kPa, x2 = 0.6054 | 824.57
323.11 K, 10017 kPa, x2 = 0.1347 | 804.97
323.11 K, 10057 kPa, x2 = 0.6054 | 826.64
323.11 K, 11055 kPa, x2 = 0.1347 | 805.83
323.11 K, 11062 kPa, x2 = 0.6054 | 828.82
323.11 K, 12029 kPa, x2 = 0.1347 | 806.64
323.11 K, 12049 kPa, x2 = 0.6054 | 830.92
323.11 K, 13031 kPa, x2 = 0.1347 | 807.47
323.11 K, 13068 kPa, x2 = 0.6054 | 833.05
323.11 K, 14038 kPa, x2 = 0.1347 | 808.26
323.11 K, 14062 kPa, x2 = 0.6054 | 835.02
323.11 K, 15022 kPa, x2 = 0.1347 | 809.05
323.11 K, 15036 kPa, x2 = 0.6054 | 836.96
323.11 K, 16015 kPa, x2 = 0.1347 | 809.84
323.11 K, 16032 kPa, x2 = 0.6054 | 838.86
323.11 K, 17022 kPa, x2 = 0.1347 | 810.64
323.11 K, 17053 kPa, x2 = 0.6054 | 840.77
323.11 K, 18041 kPa, x2 = 0.1347 | 811.39
323.11 K, 18069 kPa, x2 = 0.6054 | 842.62
323.11 K, 19010 kPa, x2 = 0.1347 | 812.15
323.11 K, 19041 kPa, x2 = 0.6054 | 844.36
323.11 K, 20025 kPa, x2 = 0.1347 | 812.91
323.11 K, 20032 kPa, x2 = 0.6054 | 846.09
